Laboratory results: PubChem BioAssay AID248 (DTP/NCI, 2004)
Values joined by “and” are separate entries in the source; they are usually repeats but may differ in a detail not shown here. Identical values can stand only once. Inconclusive results and toxic doses are left out. Rule as the data show it: active = T/C of 150% or more; inactive = T/C below 125%.

Test system: L1210 leukemia ip in BDF1 mice, survival T/C
Assay: NCI In Vivo Anticancer Drug Screen. Data for tumor model L1210 Leukemia (intraperitoneal) in B6D2F1 (BDF1) mice
Details: endpoint: mean survival time, higher = longer survival
How it was run: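 Mice bearing the transplanted tumor received compound or vehicle. Survival of the treated group was divided by that of the vehicle-treated control group to give the ratio.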

[1] = dose: 100.0 mg/kg/injection, schedule: Q01DX001 (ip), vehicle: saline
[2] = dose: 200.0 mg/kg/injection, schedule: Q01DX001 (ip), vehicle: saline
[3] = dose: 100.0 mg/kg/injection, schedule: Q04DX003 (ip), vehicle: saline with Tween-80
[4] = dose: 200.0 mg/kg/injection, schedule: Q04DX003 (ip), vehicle: saline with Tween-80
[5] = dose: 400.0 mg/kg/injection, schedule: Q04DX003 (ip), vehicle: saline with Tween-80
[6] = dose: 50.0 mg/kg/injection, schedule: Q01DX009 (ip), vehicle: saline with Tween-80
[7] = dose: 100.0 mg/kg/injection, schedule: Q01DX009 (ip), vehicle: saline with Tween-80
[8] = dose: 150.0 mg/kg/injection, schedule: Q01DX001 (ip), vehicle: carboxymethylcellulose (CMC)
[9] = dose: 100.0 mg/kg/injection, schedule: Q01DX009 (ip), vehicle: Klucel (hydroxypropylcellulose) (HPC)
[10] = dose: 100.0 mg/kg/injection, schedule: Q04DX003 (ip), vehicle: Klucel (hydroxypropylcellulose) (HPC)
[11] = dose: 100.0 mg/kg/injection, schedule: Q01DX001 (ip), vehicle: carboxymethylcellulose (CMC)
[12] = dose: 200.0 mg/kg/injection, schedule: Q01DX001 (ip), vehicle: carboxymethylcellulose (CMC)
[13] = dose: 400.0 mg/kg/injection, schedule: Q01DX001 (ip), vehicle: carboxymethylcellulose (CMC)

Measured: T/C

Nc1nc(SCC(=O)c2ccc(Cl)cc2)c2c(n1)SCC(c1ccc(Cl)cc1)=N2
inactive: dose: 100.0 mg/kg/injection, schedule: Q01DX001 (ip), vehicle: saline with Tween-80 97 % of control | dose: 200.0 mg/kg/injection, schedule: Q01DX001 (ip), vehicle: saline with Tween-80 101 % of control | dose: 400.0 mg/kg/injection, schedule: Q01DX001 (ip), vehicle: saline with Tween-80 92 % of control

CCN1C(/C=C/c2ccc(O)c3ncccc23)CCC2CC(C)CCC21 (centres undefined)
inactive: dose: 75.0 mg/kg/injection, schedule: Q01DX001 (ip), vehicle: saline 117 % of control | dose: 150.0 mg/kg/injection, schedule: Q01DX001 (ip), vehicle: saline 119 % of control | dose: 300.0 mg/kg/injection, schedule: Q01DX001 (ip), vehicle: saline 120 % of control

S=C(Nc1ccccc1)Nc1ccc(Br)cc1
inactive: dose: 100.0 mg/kg/injection, schedule: Q04DX002 (ip), vehicle: Klucel (hydroxypropylcellulose) (HPC) 101 % of control | dose: 200.0 mg/kg/injection, schedule: Q04DX002 (ip), vehicle: Klucel (hydroxypropylcellulose) (HPC) 105 % of control | dose: 400.0 mg/kg/injection, schedule: Q04DX002 (ip), vehicle: Klucel (hydroxypropylcellulose) (HPC) 97 % of control

CCCC(=O)CCNC
inactive: [1] 103 % of control | [2] 94 % of control | dose: 400.0 mg/kg/injection, schedule: Q01DX001 (ip), vehicle: saline 111 % of control

c1cc2c3c(c1)ncn3CCC2
inactive: dose: 50.0 mg/kg/injection, schedule: Q01DX009 (ip), vehicle: other 119 % of control | dose: 100.0 mg/kg/injection, schedule: Q01DX009 (ip), vehicle: other 104 % of control | [3] 102 % of control | dose: 200.0 mg/kg/injection, schedule: Q01DX009 (ip), vehicle: other 117 % of control | [4] 100 % of control

c1ccc(-c2cc3c(cc2-c2ccccc2)C(c2ccccc2)(c2ccccc2)c2nc4ccccc4nc2-3)cc1
inactive: [3] 95 % of control | [4] 93 % of control | [5] 91 % of control

O=C(CBr)N1CCC2(CC1)SSC1(CCN(C(=O)CBr)CC1)S2
inactive: [6] 96 % of control | [7] 91 % of control | [3] 102 % of control | [4] 105 % of control

O=C(CNC(=O)OCc1ccccc1)NC(Cc1ccccc1)C(=O)Oc1c(Cl)c(Cl)c(Cl)c(Cl)c1Cl (centres undefined)
inactive: dose: 75.0 mg/kg/injection, schedule: Q01DX001 (ip), vehicle: carboxymethylcellulose (CMC) 106 % of control | [8] 98 % of control | dose: 300.0 mg/kg/injection, schedule: Q01DX001 (ip), vehicle: carboxymethylcellulose (CMC) 91 % of control

COC(=O)CC(CC(=O)OC)c1cccc([N+](=O)[O-])c1
inactive: dose: 25.6 mg/kg/injection, schedule: Q04DX002 (ip), vehicle: saline with Tween-80 101 % of control | dose: 64.0 mg/kg/injection, schedule: Q04DX002 (ip), vehicle: saline with Tween-80 101 % of control | [3] 106 % of control | dose: 160.0 mg/kg/injection, schedule: Q04DX002 (ip), vehicle: saline with Tween-80 101 % of control | [4] 101 % of control | dose: 400.0 mg/kg/injection, schedule: Q04DX002 (ip), vehicle: saline with Tween-80 86 % of control | [5] 101 % of control

Cc1c(Cl)cccc1NC(=O)C(c1ccccc1)c1ccccc1
inactive: [9] 89 % of control | [10] 101 % of control | dose: 200.0 mg/kg/injection, schedule: Q01DX009 (ip), vehicle: Klucel (hydroxypropylcellulose) (HPC) 94 % of control | dose: 200.0 mg/kg/injection, schedule: Q04DX003 (ip), vehicle: Klucel (hydroxypropylcellulose) (HPC) 86 % of control | dose: 400.0 mg/kg/injection, schedule: Q01DX009 (ip), vehicle: Klucel (hydroxypropylcellulose) (HPC) 93 % of control | dose: 400.0 mg/kg/injection, schedule: Q04DX003 (ip), vehicle: Klucel (hydroxypropylcellulose) (HPC) 91 % of control

[O-][n+]1c(Cl)cc(Cl)c2ccccc21
inactive: dose: 25.0 mg/kg/injection, schedule: Q01DX009 (ip), vehicle: saline with Tween-80 95 % of control | [6] 114 % of control | [7] 97 % of control and 102 % of control

Cc1c(C(=O)O)sc2ccc([N+](=O)[O-])cc12
inactive: [11] 97 % of control | [12] 95 % of control | [13] 92 % of control

C/C(=N\NC(=O)C1CCCO1)c1cccc2ccccc12 (centres undefined)
inactive: dose: 12.5 mg/kg/injection, schedule: Q01DX009 (ip), vehicle: Klucel (hydroxypropylcellulose) (HPC) 97 % of control | dose: 25.0 mg/kg/injection, schedule: Q01DX009 (ip), vehicle: Klucel (hydroxypropylcellulose) (HPC) 114 % of control

CCN(CC)CCOC(=O)c1[nH]cnc1/N=N\N(C)C
inactive: [1] 104 % of control | [2] 98 % of control

Cc1cccn(C(=O)c2ccccc2)c1=N
inactive: [11] 100 % of control | [12] 96 % of control | [13] 102 % of control

CCOc1cc(C=Nc2cc(Br)c(O)c(Br)c2)ccc1N(CCCl)CCCl
inactive: dose: 13.3 mg/kg/injection, schedule: Q01DX009 (ip), vehicle: carboxymethylcellulose (CMC) 108 % of control | dose: 20.0 mg/kg/injection, schedule: Q01DX009 (ip), vehicle: carboxymethylcellulose (CMC) 100 % of control | dose: 30.0 mg/kg/injection, schedule: Q01DX009 (ip), vehicle: carboxymethylcellulose (CMC) 97 % of control | dose: 44.0 mg/kg/injection, schedule: Q01DX001 (ip), vehicle: carboxymethylcellulose (CMC) 123 % of control | [11] 123 % of control | [8] 122 % of control

Cc1ccc(NC(=O)CC#N)c(C)c1
inactive: [6] 95 % of control | [7] 113 % of control | dose: 100.0 mg/kg/injection, schedule: Q04DX002 (ip), vehicle: saline with Tween-80 101 % of control | dose: 200.0 mg/kg/injection, schedule: Q01DX009 (ip), vehicle: saline with Tween-80 113 % of control | dose: 200.0 mg/kg/injection, schedule: Q04DX002 (ip), vehicle: saline with Tween-80 101 % of control

O=C1Oc2ccccc2C1=O
inactive: dose: 50.0 mg/kg/injection, schedule: Q01DX009 (ip), vehicle: saline 98 % of control | dose: 75.0 mg/kg/injection, schedule: Q01DX001 (ip), vehicle: other 101 % of control | dose: 100.0 mg/kg/injection, schedule: Q01DX009 (ip), vehicle: saline 102 % of control | dose: 100.0 mg/kg/injection, schedule: Q04DX003 (ip), vehicle: saline 109 % of control | dose: 150.0 mg/kg/injection, schedule: Q01DX001 (ip), vehicle: other 101 % of control | dose: 200.0 mg/kg/injection, schedule: Q01DX009 (ip), vehicle: saline 91 % of control | dose: 200.0 mg/kg/injection, schedule: Q04DX003 (ip), vehicle: saline 98 % of control

CC(=O)c1cccc(NC(=O)Nc2cccc(C(C)=O)c2)c1
inactive: dose: 2.5 mg/kg/injection, schedule: Q01DX009 (ip), vehicle: saline 101 % of control | dose: 5.0 mg/kg/injection, schedule: Q01DX009 (ip), vehicle: saline 95 % of control | dose: 10.0 mg/kg/injection, schedule: Q01DX009 (ip), vehicle: saline 98 % of control | dose: 20.0 mg/kg/injection, schedule: Q01DX009 (ip), vehicle: saline 93 % of control and 101 % of control | dose: 40.0 mg/kg/injection, schedule: Q01DX009 (ip), vehicle: saline 90 % of control | dose: 80.0 mg/kg/injection, schedule: Q01DX009 (ip), vehicle: saline 93 % of control | dose: 160.0 mg/kg/injection, schedule: Q01DX009 (ip), vehicle: saline 90 % of control | dose: 320.0 mg/kg/injection, schedule: Q01DX009 (ip), vehicle: saline 95 % of control

CS(=O)c1cc2c(cc1[N+](=O)[O-])C(=O)c1ccccc1-2 (centres undefined)
inactive: dose: 20.0 mg/kg/injection, schedule: Q01DX009 (ip), vehicle: Klucel (hydroxypropylcellulose) (HPC) 107 % of control | dose: 40.0 mg/kg/injection, schedule: Q01DX009 (ip), vehicle: Klucel (hydroxypropylcellulose) (HPC) 117 % of control | dose: 50.0 mg/kg/injection, schedule: Q04DX003 (ip), vehicle: Klucel (hydroxypropylcellulose) (HPC) 97 % of control | [9] 95 % of control | [10] 93 % of control
